Entries after “also recorded” stand apart in the source; their conditions may differ.
Assays:
[1] = PET imaging of [68]Ga-MannGaFish; details: in vivo
CD206 = target: T1, CD206 (Homo sapiens, UniProt P22897); details: read-out: binding affinity to CD206 (IC50); cited from earlier work
T1 sequence (P22897 19-1456): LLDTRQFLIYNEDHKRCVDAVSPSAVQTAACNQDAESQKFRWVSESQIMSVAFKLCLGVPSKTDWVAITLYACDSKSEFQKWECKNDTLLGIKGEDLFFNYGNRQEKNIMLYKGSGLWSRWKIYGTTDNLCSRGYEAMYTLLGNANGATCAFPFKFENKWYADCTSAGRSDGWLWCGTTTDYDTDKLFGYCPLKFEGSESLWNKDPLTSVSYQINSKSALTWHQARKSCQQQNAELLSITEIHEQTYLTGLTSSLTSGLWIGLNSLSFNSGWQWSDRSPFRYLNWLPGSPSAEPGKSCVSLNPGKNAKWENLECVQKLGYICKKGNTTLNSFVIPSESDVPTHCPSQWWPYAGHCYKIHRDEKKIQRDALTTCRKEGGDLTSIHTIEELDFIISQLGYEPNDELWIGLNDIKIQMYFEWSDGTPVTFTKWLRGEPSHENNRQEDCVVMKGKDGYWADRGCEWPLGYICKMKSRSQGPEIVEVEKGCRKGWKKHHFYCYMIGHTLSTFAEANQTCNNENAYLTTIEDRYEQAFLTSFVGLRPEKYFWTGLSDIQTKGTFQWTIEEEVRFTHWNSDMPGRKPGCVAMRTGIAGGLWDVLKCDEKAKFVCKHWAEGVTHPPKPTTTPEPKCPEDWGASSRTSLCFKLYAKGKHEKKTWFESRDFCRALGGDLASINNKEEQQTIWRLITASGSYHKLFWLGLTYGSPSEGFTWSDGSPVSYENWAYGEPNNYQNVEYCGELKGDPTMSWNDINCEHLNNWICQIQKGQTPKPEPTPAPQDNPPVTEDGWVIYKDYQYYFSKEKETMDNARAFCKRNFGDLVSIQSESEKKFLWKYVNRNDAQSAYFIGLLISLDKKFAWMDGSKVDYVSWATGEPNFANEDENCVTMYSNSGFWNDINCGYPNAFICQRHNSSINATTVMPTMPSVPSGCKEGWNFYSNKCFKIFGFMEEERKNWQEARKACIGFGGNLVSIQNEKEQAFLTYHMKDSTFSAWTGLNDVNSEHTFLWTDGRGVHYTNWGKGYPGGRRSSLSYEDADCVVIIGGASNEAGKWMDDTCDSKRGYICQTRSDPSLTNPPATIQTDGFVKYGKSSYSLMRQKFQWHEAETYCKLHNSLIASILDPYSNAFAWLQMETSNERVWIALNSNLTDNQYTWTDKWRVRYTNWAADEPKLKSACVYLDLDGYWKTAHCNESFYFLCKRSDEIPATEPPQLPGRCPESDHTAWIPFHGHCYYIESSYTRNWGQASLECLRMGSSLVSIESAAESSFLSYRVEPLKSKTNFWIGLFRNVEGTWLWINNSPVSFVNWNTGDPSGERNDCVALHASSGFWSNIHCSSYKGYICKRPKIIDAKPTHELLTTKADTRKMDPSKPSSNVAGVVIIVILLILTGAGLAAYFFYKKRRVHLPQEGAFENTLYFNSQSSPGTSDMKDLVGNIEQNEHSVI

[2] = tested on: M1 and M2 macrophages differentiated from Raw 264.7 cells; assay: fluorescence imaging of M1- and M2-differentiated macrophages; assay type: cell-based; details: incubated at 37° C.
Experimental: M1- and M2-differentiated macrophages were incubated with 1/1000 dilution of MR2-cy5 stock solution (10 mM in DMSO) for 1 h at 37° C. and counter-stained with DAPI (4′,6-diamidino-2-phenylindole, Invitrogen). The cells were washed with PBS and fluorescence imaging was captured with a digital microscope (Nikon Eclipse TE2000-U).
M1 and M2 polarized differentiation. Raw 264.7 cells (Passage 8 from the cell core of center for Systems Biology at Massachusetts General Hospital, Boston) in 10 mL petri dishes were cultured with Dulbecco's modified eagle medium with high glucose (DMEM, Thermo Fisher Scientific, NY, USA) containing 10% of fetal bovine serum (FBS, Sigma-Aldrich, MO, USA) and 0.5% streptomycin/penicillin (Cellgro) until reaching 80% of confluency. Then differentiating media containing IFN-gamma (100 ng/ml the above medium) for M1 polarization and IL-4 (100 ng/mL) for M2 polarization were added to the dishes, respectively. After 24 h, the M1 and M2 polarized macrophages were ready for the following experiments.

CD206+ macrophages = assay: MR imaging in mouse model of cutaneous wound healing; assay type: in vivo; details: for contrast-to-noise ratio (CNR) time course: wildtype mice, day 7 after wound induction
Experimental: Eight-to nine-week-old C57BL/6J female mice were used for MRI of wound healing and glioma (Jackson Laboratory, ME). The generation of wound healing and glioma is described in Examples 14 and 15, respectively. The mice with subcutaneous wounds were imaged on days 1, 4, and 7 longitudinally or on day 7. Mice with glioma were imaged on the third week. All the mice were imaged pre- and at 0, 15, 30, 45 and 60 min after 0.3 mmol/kg of Mann2-DTPA-Gd or MannGdFish was administered intravenously via a tail vein using serial T1 rapid acquisition with relaxation enhancement (RARE) sequence (TR: 935.77 ms, TE: 13.59 ms, averages: 12, rare factor: 4, 256×256×48 matrix size, 0.156×0.156×1 mm^3 voxel size) with chemical fat suppression using a Hermitian pulse shape with an 8.253 ms pulse and 701.19 Hz bandwidth 3.5 ppm down from the water peak and respiratory gating on a 4.7 T small animal MR scanner (Bruker, Cambridge, MA) with a 3 cm quadrature volume coil (Rapid MR International, Germany). Regions of interest (ROIs) were drawn and the contrast-to-noise ratios (CNRs, CNRpre-contrast subtracted) were calculated by a radiologist with over 20 years of experience blinded to the identity of the imaging agent used and the strain of the mice (n=3 per group).
Wound healing procedure. Seven-to ten-week-old C57BL/6J female mice (The Jackson Laboratories, ME) and mannose-receptor deficient mice were used in this study. A circular outline on the back of a mouse was made with a 4 mm biopsy punch (Kai Medical, Japan) under anesthesia using isoflurane. Then a full-thickness excisional wound was generated that extended through the subcutaneous tissue. A silicone splint was glued over the wound, anchored with 6-0 nylon sutures, and covered with a transparent occlusive dressing (OpSite). Xylazine/norepinephrine (100 μL) were intraperitoneally injected twice a day for two days and the mice were monitored daily.

RAW 264.7 cells = assay: cytotoxicity, MTT assay; assay type: cell-based; details: n=3
Experimental: The cytotoxicity of MannGdFish was evaluated using RAW264.7 cells (Passage 8 from the cell core of the Center for Systems Biology at Massachusetts General Hospital, Boston) with an MTT assay as described by Wang et. al (J Med Chem 64, 5874-5885 (2021)) (n=3).

[3] = blood half-life by ICP-MS; assay type: in vivo, mouse; details: two-phase exponential model
Experimental: (§1) 6-10 weeks old of C57BL/6J mice were administered with MannGdFish intravenously 24 h after the wound injury. At 3 h and on day 7 after induction, mice were sacrificed and major organs including wound skins and the counter skins were harvested (n=3 for each time point). Blood samples were collected before and at different time points after the administration of MannGdFish (n=6) and centrifuged to obtain the plasma. The samples were weighed, treated with nitric acid, and subjected to inductively coupled plasma mass spectrometry (ICP-MS) to determine the amount of gadolinium as described in Example 6.

[4] = biodistribution and retention by ICP-MS in mice with cutaneous wound; assay type: in vivo, mouse
Experimental: as §1

[5] = in vitro relaxivity (r1), Bruker Minispect; assay type: physicochemical
Experimental: Relaxation time (T1) of Mann2-DTPA-Gd/MannGdFish at concentrations of 0.1, 0.2, 0.3, 0.5, 0.6, 0.75, and 1 mM in PBS was measured on the Bruker Minispect (Bruker Analytics, MA) at 0.47 T (20 MHz) at 40° C. The slope value of the linear function of 1/T1 (s) to their corresponding concentrations is defined as the relaxivity (n=3 for each concentration).

O=C([O-])CN1CCN(CC(=O)[O-])CCN(C(CCC(=O)NC(COC2OC(CO)C(O)C(O)C2O)COC2OC(CO)C(O)C(O)C2O)C(=O)[O-])CCN(CC(=O)O)CC1.[68Ga+3] (stereo not shown) [[68]Ga-MannGaFish]
uptake in organs on PET imaging [1]: low uptakes in the lungs and heart

O=C[C@@H](O)[C@@H](O)[C@H](O)[C@H](O)CO [D-mannose]
IC50 (CD206): 5.5 mM

CC[N+]1=C(/C=C/C=C/C=C2/N(CCCCCC(=O)NC3C(O)OC(CO)C(O)C3O)c3ccc(S(=O)(=O)O)cc3C2(C)C)C(C)(C)c2cc(S(=O)(=O)[O-])ccc21 (stereo not shown) [MR1-cy5]
fluorescence signal, M2 versus M1 macrophages (specificity) [2]: low specificity to M2 macrophages

CC[N+]1=C(/C=C/C=C/C=C2/N(CCCCCC(=O)NC(COC3OC(CO)C(O)C(O)C3O)COC3OC(CO)C(O)C(O)C3O)c3ccc(S(=O)(=O)O)cc3C2(C)C)C(C)(C)c2cc(S(=O)(=O)[O-])ccc21 (stereo not shown) [MR2-cy5]
fluorescence signal, M2 versus M1 macrophages (specificity) [2]: much higher signal from M2 macrophages than that from M1 macrophages; also recorded: much higher signal in M2 macrophages compared to that in M1 macrophages

O=C([O-])CN1CCN(CC(=O)[O-])CCN(CC(=O)O)CCN(CC(=O)[O-])CC1.[Gd+3] [DOTA-Gd, reference compound]
contrast-to-noise ratio (CNR) time course (CD206+ macrophages): decreased significantly 15 min post-injection; also recorded: decreased rapidly after peaking at 15 min post-injection

O=C([O-])CN1CCN(CC(=O)[O-])CCN(C(CCC(=O)NC(COC2OC(CO)C(O)C(O)C2O)COC2OC(CO)C(O)C(O)C2O)C(=O)[O-])CCN(CC(=O)O)CC1.[Gd+3] (stereo not shown) [MannGdFish]
cytotoxicity: concentration up to which no cytotoxic effect was observed (RAW 264.7 cells): > 5 mM
blood half-life, fast phase [3]: 0.3 min
blood half-life, slow phase [3]: 6.1 min
gadolinium in wound versus normal skin ([4]; 3 h after administration, wound 24 h post-injury): low and not significantly different compared to that in the normal skin
major organs containing gadolinium ([4]; 3 h and day 7): liver and spleen being the major organs containing gadolinium
accumulation or retention of Gd in the body ([4]; 3 h and day 7, ICP-MS): < 0.5 nmol Gd per gram tissue
gadolinium in wound versus normal skin ([4]; day 7): higher in the wound than that in the normal skin
relaxivity (r1) [5]: 5.2 mmol⁻¹ s⁻¹
MR signal compared to DOTA-Gd (CD206+ macrophages; 60 min, wound healing day 7): much higher in comparison with that of DOTA-Gd; also recorded: much higher compared to that of DOTA-Gd
contrast-to-noise ratio (CNR) time course (CD206+ macrophages): slow decrease of CNR
CNR compared to Mann2-DTPA-Gd (CD206+ macrophages; wildtype wound healing mice, day 7): slightly higher CNRs and similar dynamic profile as that of Mann2-DTPA-Gd; also recorded: slightly higher compared to that of Mann2-DTPA-Gd

Source: patent publication US20260183432A1, “IMAGING AGENTS FOR DETECTING CD206+ MACROPHAGES” (THE GENERAL HOSPITAL CORPORATION, priority 2022, published 2026)
